The values that follow come from EP0305845A1, “Pyridyl ethanol amines, pharmaceutical compositions containing them and processes for their preparation” (Dr. Karl Thomae GmbH, priority 1987, dated 1989).

Counter-ions that a name gives are not always drawn.

Common to all, as to format: in vivo
For series [1], the system named is Mäusen. Nature of the series: Antiadipose effect b): decrease of ovarian fat tissue weight in mice. To be noted: dose 0,3 mg/kg once daily by gavage; fat tissue weighed on day 5. From the text:
b) In der zweiten Versuchsanordnung zur Erfassung antiadipö-ser Wirkung der erfindungsgemäßen Verbindungen wurde die Abnahme des Fettgewebes am Beispiel des Ovarfettgewebes gemessen. Die Verbindungen wurden zu diesem Zwecke Mäusen einmal täglich mittels Schlundsonde in 1,5%iger Methylzellulosesuspension appliziert. Am fünften Tag wurde das Ovarfettgewebe herauspräpariert und gewogen. In der nachfolgenden Tabelle sind die Ergebnisse in % einer mitgeführten Kontrollgruppe wiedergegeben.

Series [2] deals with weiblichen Mäusen eigener Zucht. The experiment in a line: Antiadipose effect a): increase of lipolysis measured as rise of serum glycerol in mice. To be noted: same procedure as the blood glucose test. From the text:
(§1) Die antidiabetische Wirkung der erfindungsgemäßen Verbindungen läßt sich als eine blutzuckersenkende Wirkung bei Versuchstieren messen. Die zu untersuchenden Substanzen wurden dazu in 1,5%iger Methylzellulose suspendiert und weiblichen Mäusen eigener Zucht mittels Schlundsonde appliziert. 30 Minuten später wurde 1 g Glukose pro kg Körpergewicht in Wasser gelöst und subkutan appliziert. Weitere 30 Minuten später wurde aus dem retroorbitalen Venenplexus Blut entnommen. Aus dem Serum wurde Glukose mit der Hexokinase-Methode mit Hilfe eines Analysenphotometers bestimmt.
Die antiadipöse Wirkung der erfindungsgemäßen Verbindungen wurde in zwei Versuchsanordnungen nachgewiesen: a) In der ersten Versuchsanordnung wurde die Steigerung der Lipolyse am Anstieg des Glyzerins im Serum gemessen. Der Versuchsablauf ist identisch mit der zur Testung auf blutzuckersenkende Wirkung vorstehend beschriebenen Versuchsanordnung. Glyzerin wurde in einem kombinierten enzymatisch-kolorimetrischen Test mit Hilfe eines Analysenphotometers bestimmt. Die Ergebnisse sind in der nachfolgenden Tabelle in % einer mitgeführten Kontrollgruppe aufgeführt.

Series [3] relates to Mäusen. Nature of the series: Cardiac side effects: heart rate in mice by ECG-triggered tachograph. To be noted: 1 hour after application. The source says: Das Auftreten von unerwünschten Nebenwirkungen auf das Herz konnte für die erfindungsgemäßen Verbindungen für den therapeutisch angestrebten stoffwechselaktiven Dosisbereich ausgeschlossen werden. Als Nachweis diente die Messung der Herzfrequenz an Mäusen während der Testung auf blutzuckersenkende Wirkung (s.o.). Eine Stunde nach der oralen Applikation der Verbindungen wurde die Herzfrequenz mittels EKG-getriggertem Tachographen bestimmte. Die nachfolgende Tabelle gibt die Änderung der Herzfrequenz in % der Kontrollgruppe wieder.

For series [4], the system named is weiblichen Mäusen eigener Zucht. Nature of the series: Antidiabetic effect: blood glucose lowering after subcutaneous glucose load in mice. The settings on record: 1 g/kg glucose s.c. 30 min later, serum glucose after a further 30 min.
Text: as §1
In der nachstehenden Tabelle sind die bei dieser Versuchsanordnung beobachteten Blutzuckersenkungen in % einer mitgeführten Kontrollgruppe zusammengestellt. Die statistische Auswertung erfolgt nach dem t-Test nach Student mit p=0,05 als Signifikanzgrenze.

Setting [5] is: dose 0,3 mg/kg oral, values in ( ) = not significant (p > 0.05).

For `CC(Cc1ccc(OCCO)cc1)NCC(O)c1cccc(Cl)n1` (single isomer, unassigned) [Beispiel 5], the “Abnahme des Ovarfettgewebes, % Änderung vom Wert der Kontrollgruppe” value with Mäusen [1] is given as -54%. Moreover, in series [2] (dose 0,3 mg/kg by gavage), the “Anstieg des Glyzerins im Serum, % Änderung vom Wert der Kontrollgruppe” value is “+878%”. For the same compound, the “Änderung der Herzfrequenz, % Änderung vom Wert der Kontrollgruppe” value with Mäusen [3] (setting [5]) is listed as “(+27) %”. In addition, the “Blutzuckersenkungen, % Änderung vom Wert der Kontrollgruppe” value in series [4] (dose 0,3 mg/kg by gavage) was -66%.

For `CC(Cc1ccc(OCCO)cc1)NCC(O)c1cccc(Cl)n1` (stereo not drawn) [Beispiel 2, N-[2-(4-(2-Hydroxyethoxy)phenyl)-1-methylethyl]-2-hydroxy-2-(6-chlor-pyridin-2-yl)ethanamin-hydrochlorid], the “Anstieg des Glyzerins im Serum, % Änderung vom Wert der Kontrollgruppe” value in series [2] (dose 0,1 mg/kg by gavage) was “+454%”. The “Änderung der Herzfrequenz, % Änderung vom Wert der Kontrollgruppe” value in the series on Mäusen [3] (setting [5]) is given as “(+6,9) %”. In addition, in series [4] (dose 0,1 mg/kg by gavage), the “Blutzuckersenkungen, % Änderung vom Wert der Kontrollgruppe” value is recorded as -64%.

`COC(=O)COc1ccc(CC(C)NCC(O)c2cccc(Cl)n2)cc1` (stereo not drawn) [Beispiel 1, N-[2-(4-Carbomethoxymethoxyphenyl)-1-methylethyl]-2-hydroxy-2-(6-chlor-pyridin-2-yl)ethanamin-hydrochlorid]: the “Anstieg des Glyzerins im Serum, % Änderung vom Wert der Kontrollgruppe” value in series [2] (dose 1,0 mg/kg by gavage) is “+882%”. For the same compound, in the series with Mäusen [3] (dose 10 mg/kg oral), the “Änderung der Herzfrequenz, % Änderung vom Wert der Kontrollgruppe” value is “+35%”. The “Blutzuckersenkungen, % Änderung vom Wert der Kontrollgruppe” value in series [4] (dose 1,0 mg/kg by gavage) is -66%.

In the case of `CC(Cc1ccc(OCC(=O)O)cc1)NCC(O)c1cccc(Cl)n1` (single isomer, unassigned) [Beispiel 4, N-[2-(4-Carboxymethoxyphenyl)-1-methylethyl]-2-hydroxy-2-(6-chlor-pyridin-2-yl)ethanamin], in series [2] (dose 0,3 mg/kg by gavage), the “Anstieg des Glyzerins im Serum, % Änderung vom Wert der Kontrollgruppe” value is “+891%”.

For `CC(Cc1ccc(OCC(=O)O)cc1)NCC(O)c1cccc(Cl)n1` (stereo not drawn) [Beispiel 3, N-[2-(4-Carboxymethoxyphenyl)-1-methylethyl]-2-hydroxy-2-(6-chlor-pyridin-2-yl)ethanamin], the “Anstieg des Glyzerins im Serum, % Änderung vom Wert der Kontrollgruppe” value in series [2] (dose 0,3 mg/kg by gavage) is listed as “+309%”.
